Data published in ChEMBL document CHEMBL2440076, “New triarylpyrazoles as broad-spectrum anticancer agents: design, synthesis, and biological evaluation” (Eur J Med Chem, 2013).

Key:
Format in all cases: functional
HT-29 = assay: Growth inhibition of human HT-29 cells assessed as cell growth at 10^-4 M after 48 hrs by sulforhodamine B assay; conditions: HT-29, 48 h, read-out: Activity
Malme-3M = assay: Growth inhibition of human MALME-3M cells assessed as cell growth at 10^-8 M after 48 hrs by sulforhodamine B assay; conditions: read-out: Activity
HOP-62 [1] = assay: Growth inhibition of human HOP62 cells assessed as cell growth at 10^-6 M after 48 hrs by sulforhodamine B assay; conditions: HOP-62, 48 h, read-out: Activity
SR [2] = assay: Growth inhibition of human SR cells assessed as cell growth at 10^-5 M after 48 hrs by sulforhodamine B assay; conditions: read-out: Activity
HOP-62 [3] = assay: Growth inhibition of human HOP62 cells assessed as cell growth at 10^-5 M after 48 hrs by sulforhodamine B assay; conditions: HOP-62, 48 h, read-out: Activity
SN12C [4] = assay: Growth inhibition of human SN12C cells assessed as cell growth at 10^-8 M after 48 hrs by sulforhodamine B assay; conditions: read-out: Activity
M14 = assay: Growth inhibition of human M14 cells assessed as cell growth at 10^-5 M after 48 hrs by sulforhodamine B assay; conditions: M14, 48 h, read-out: Activity
786-0 [5] = assay: Growth inhibition of human 786-0 cells assessed as cell growth at 10^-4 M after 48 hrs by sulforhodamine B assay; conditions: 786-0, 48 h, read-out: Activity
NCI-H322M [6] = assay: Growth inhibition of human NCI-H322M cells assessed as cell growth at 10^-6 M after 48 hrs by sulforhodamine B assay; conditions: read-out: Activity
SR [7] = assay: Growth inhibition of human SR cells assessed as cell growth at 10^-6 M after 48 hrs by sulforhodamine B assay; conditions: read-out: Activity
PC-3 [8] = assay: Growth inhibition of human PC3 cells assessed as cell growth at 10^-8 M after 48 hrs by sulforhodamine B assay; conditions: PC-3, 48 h, read-out: Activity
T47D [9] = assay: Growth inhibition of human T47D cells assessed as cell growth at 10^-5 M after 48 hrs by sulforhodamine B assay; conditions: read-out: Activity
HOP-62 [10] = assay: Growth inhibition of human HOP62 cells assessed as cell growth at 10^-4 M after 48 hrs by sulforhodamine B assay; conditions: HOP-62, 48 h, read-out: Activity
K562 = assay: Growth inhibition of human K562 cells assessed as cell growth at 10^-6 M after 48 hrs by sulforhodamine B assay; conditions: K562, 48 h, read-out: Activity
T47D [11] = assay: Growth inhibition of human T47D cells assessed as cell growth at 10^-4 M after 48 hrs by sulforhodamine B assay; conditions: read-out: Activity
[12] = Growth inhibition of human Hs 578T cells assessed as cell growth at 10^-5 M after 48 hrs by sulforhodamine B assay; conditions: read-out: Activity
SNB-75 [13] = assay: Growth inhibition of human SNB75 cells assessed as cell growth at 10^-4 M after 48 hrs by sulforhodamine B assay; conditions: SNB-75, 48 h, read-out: Activity
SF-268 = assay: Growth inhibition of human SF268 cells assessed as cell growth at 10^-5 M after 48 hrs by sulforhodamine B assay; conditions: SF-268, 48 h, read-out: Activity
LOX IMVI [14] = assay: Growth inhibition of human LOXIMVI cells assessed as cell growth at 10^-4 M after 48 hrs by sulforhodamine B assay; conditions: read-out: Activity
OVCAR-8 = assay: Growth inhibition of human OVCAR8 cells assessed as cell growth at 10^-4 M after 48 hrs by sulforhodamine B assay; conditions: OVCAR-8, 48 h, read-out: Activity
SNB-75 [15] = assay: Growth inhibition of human SNB75 cells assessed as cell growth at 10^-6 M after 48 hrs by sulforhodamine B assay; conditions: SNB-75, 48 h, read-out: Activity
A549 [16] = assay: Growth inhibition of human A549/ATCC cells assessed as cell growth at 10^-8 M after 48 hrs by sulforhodamine B assay; conditions: A549, 48 h, read-out: Activity
IGROV-1 [17] = assay: Growth inhibition of human IGROV1 cells assessed as cell growth at 10^-6 M after 48 hrs by sulforhodamine B assay; conditions: IGROV-1, 48 h, read-out: Activity
SK-MEL-5 = assay: Growth inhibition of human SK-MEL-5 cells assessed as cell growth at 10^-7 M after 48 hrs by sulforhodamine B assay; conditions: SK-MEL-5, 48 h, read-out: Activity
NCI-H322M [18] = assay: Growth inhibition of human NCI-H322M cells assessed as cell growth at 10^-7 M after 48 hrs by sulforhodamine B assay; conditions: read-out: Activity
PC-3 [19] = assay: Growth inhibition of human PC3 cells assessed as cell growth at 10^-5 M after 48 hrs by sulforhodamine B assay; conditions: PC-3, 48 h, read-out: Activity
A549 [20] = assay: Growth inhibition of human A549/ATCC cells assessed as cell growth at 10^-6 M after 48 hrs by sulforhodamine B assay; conditions: A549, 48 h, read-out: Activity
SNB-75 [21] = assay: Growth inhibition of human SNB75 cells assessed as cell growth at 10^-7 M after 48 hrs by sulforhodamine B assay; conditions: SNB-75, 48 h, read-out: Activity
IGROV-1 [22] = assay: Growth inhibition of human IGROV1 cells assessed as cell growth at 10^-8 M after 48 hrs by sulforhodamine B assay; conditions: IGROV-1, 48 h, read-out: Activity
SF-295 = assay: Growth inhibition of human SF295 cells assessed as cell growth at 10^-7 M after 48 hrs by sulforhodamine B assay; conditions: SF-295, 48 h, read-out: Activity
LOX IMVI [23] = assay: Growth inhibition of human LOXIMVI cells assessed as cell growth at 10^-5 M after 48 hrs by sulforhodamine B assay; conditions: read-out: Activity
UACC-257 = assay: Growth inhibition of human UACC257 cells assessed as cell growth at 10^-7 M after 48 hrs by sulforhodamine B assay; conditions: UACC-257, 48 h, read-out: Activity
A549 [24] = assay: Growth inhibition of human A549/ATCC cells assessed as cell growth at 10^-5 M after 48 hrs by sulforhodamine B assay; conditions: A549, 48 h, read-out: Activity
SNB-19 = assay: Growth inhibition of human SNB19 cells assessed as cell growth at 10^-4 M after 48 hrs by sulforhodamine B assay; conditions: SNB-19, 48 h, read-out: Activity
U-251 = assay: Growth inhibition of human U251 cells assessed as cell growth at 10^-7 M after 48 hrs by sulforhodamine B assay; conditions: U-251, 48 h, read-out: Activity
786-0 [25] = assay: Growth inhibition of human 786-0 cells assessed as cell growth at 10^-6 M after 48 hrs by sulforhodamine B assay; conditions: 786-0, 48 h, read-out: Activity
SN12C [26] = assay: Growth inhibition of human SN12C cells assessed as cell growth at 10^-4 M after 48 hrs by sulforhodamine B assay; conditions: read-out: Activity
[27] = Growth inhibition of human NCI-ADR-RES cells assessed as cell growth at 10^-6 M after 48 hrs by sulforhodamine B assay; conditions: read-out: Activity
SF-539 = assay: Growth inhibition of human SF539 cells assessed as cell growth at 10^-6 M after 48 hrs by sulforhodamine B assay; conditions: SF-539, 48 h, read-out: Activity
DU-145 = assay: Growth inhibition of human DU145 cells assessed as cell growth at 10^-5 M after 48 hrs by sulforhodamine B assay; conditions: DU-145, 48 h, read-out: Activity

## COc1cc(-c2nn(-c3cccc(NC(=O)c4ccccc4)c3)cc2-c2ccncc2)ccc1Cl
HT-29
  growth at 100 µM: 4%
Malme-3M
  growth at 0.01 µM: 98%
HOP-62 [1]
  growth at 1 µM: 72%
SR [2]
  growth at 10 µM: 2%
HOP-62 [3]
  growth at 10 µM: 48%
SN12C [4]
  growth at 0.01 µM: 96%
M14
  growth at 10 µM: 5%
786-0 [5]
  growth at 100 µM: 18%
NCI-H322M [6]
  growth at 1 µM: 78%
SR [7]
  growth at 1 µM: 7%
PC-3 [8]
  growth at 0.01 µM: 94%
T47D [9]
  growth at 10 µM: 31%
HOP-62 [10]
  growth at 100 µM: 31%
K562
  growth at 1 µM: 21%
T47D [11]
  growth at 100 µM: 30%
[12]
  growth at 10 µM: 18%
SNB-75 [13]
  growth at 100 µM: 11%
SF-268
  growth at 10 µM: 24%
LOX IMVI [14]
  growth at 100 µM: 7%
OVCAR-8
  growth at 100 µM: 26%
SNB-75 [15]
  growth at 1 µM: 39%
A549 [16]
  growth at 0.01 µM: 96%
IGROV-1 [17]
  growth at 1 µM: 35%
SK-MEL-5
  growth at 0.1 µM: 91%
NCI-H322M [18]
  growth at 0.1 µM: 85%
PC-3 [19]
  growth at 10 µM: 13%
A549 [20]
  growth at 1 µM: 37%
SNB-75 [21]
  growth at 0.1 µM: 86%
IGROV-1 [22]
  growth at 0.01 µM: 105%
SF-295
  growth at 0.1 µM: 90%
LOX IMVI [23]
  growth at 10 µM: 11%
UACC-257
  growth at 0.1 µM: 99%
A549 [24]
  growth at 10 µM: 17%
SNB-19
  growth at 100 µM: 13%
U-251
  growth at 0.1 µM: 98%
786-0 [25]
  growth at 1 µM: 56%
SN12C [26]
  growth at 100 µM: 36%
[27]
  growth at 1 µM: 28%
SF-539
  growth at 1 µM: 21%
DU-145
  growth at 10 µM: 13%

## COc1cc(-c2nn(-c3cccc(NC(=O)c4ccc(N5CCOCC5)c(C(F)(F)F)c4)c3)cc2-c2ccncc2)ccc1Cl
HT-29
  growth at 100 µM: -43%
Malme-3M
  growth at 0.01 µM: 103%
HOP-62 [1]
  growth at 1 µM: 38%
SR [2]
  growth at 10 µM: 4%
HOP-62 [3]
  growth at 10 µM: 31%
SN12C [4]
  growth at 0.01 µM: 95%
M14
  growth at 10 µM: 8%
786-0 [5]
  growth at 100 µM: 3%
NCI-H322M [6]
  growth at 1 µM: 36%
SR [7]
  growth at 1 µM: 8%
PC-3 [8]
  growth at 0.01 µM: 92%
T47D [9]
  growth at 10 µM: 19%
HOP-62 [10]
  growth at 100 µM: 9%
K562
  growth at 1 µM: 11%
T47D [11]
  growth at 100 µM: 13%
[12]
  growth at 10 µM: 3%
SNB-75 [13]
  growth at 100 µM: 2%
SF-268
  growth at 10 µM: 12%
LOX IMVI [14]
  growth at 100 µM: -34%
OVCAR-8
  growth at 100 µM: 1%
SNB-75 [15]
  growth at 1 µM: -2%
A549 [16]
  growth at 0.01 µM: 94%
IGROV-1 [17]
  growth at 1 µM: 33%
SK-MEL-5
  growth at 0.1 µM: 53%
NCI-H322M [18]
  growth at 0.1 µM: 100%
PC-3 [19]
  growth at 10 µM: 1%
A549 [20]
  growth at 1 µM: 31%
SNB-75 [21]
  growth at 0.1 µM: 75%
IGROV-1 [22]
  growth at 0.01 µM: 111%
SF-295
  growth at 0.1 µM: 60%
LOX IMVI [23]
  growth at 10 µM: -8%
UACC-257
  growth at 0.1 µM: 74%
A549 [24]
  growth at 10 µM: 7%
SNB-19
  growth at 100 µM: 15%
U-251
  growth at 0.1 µM: 88%
786-0 [25]
  growth at 1 µM: 45%
SN12C [26]
  growth at 100 µM: 11%
[27]
  growth at 1 µM: 11%
SF-539
  growth at 1 µM: -30%
DU-145
  growth at 10 µM: 13%
